Laboratory results reported in US9040707B2, “Bicyclic thiazoles as allosteric modulators of mGluR5 receptors” (Janssen Pharmaceutica NV, priority 2009, dated 2015).

What was measured:
human mGluR5a receptor [1] = target: T1, human mGluR5a receptor (Homo sapiens, UniProt P41594); experiment: Functional Assay 3: as Functional Assay 2 but clone H12H; assay type: cell-based; conditions: for EC50: glutamate EC20; for Emax: maximum average response at a single concentration
T1 construct: host or cells: HEK293A (monoclones H10H and H12H)
T1 sequence (P41594 21-1180 isoform P41594-2 limits assumed): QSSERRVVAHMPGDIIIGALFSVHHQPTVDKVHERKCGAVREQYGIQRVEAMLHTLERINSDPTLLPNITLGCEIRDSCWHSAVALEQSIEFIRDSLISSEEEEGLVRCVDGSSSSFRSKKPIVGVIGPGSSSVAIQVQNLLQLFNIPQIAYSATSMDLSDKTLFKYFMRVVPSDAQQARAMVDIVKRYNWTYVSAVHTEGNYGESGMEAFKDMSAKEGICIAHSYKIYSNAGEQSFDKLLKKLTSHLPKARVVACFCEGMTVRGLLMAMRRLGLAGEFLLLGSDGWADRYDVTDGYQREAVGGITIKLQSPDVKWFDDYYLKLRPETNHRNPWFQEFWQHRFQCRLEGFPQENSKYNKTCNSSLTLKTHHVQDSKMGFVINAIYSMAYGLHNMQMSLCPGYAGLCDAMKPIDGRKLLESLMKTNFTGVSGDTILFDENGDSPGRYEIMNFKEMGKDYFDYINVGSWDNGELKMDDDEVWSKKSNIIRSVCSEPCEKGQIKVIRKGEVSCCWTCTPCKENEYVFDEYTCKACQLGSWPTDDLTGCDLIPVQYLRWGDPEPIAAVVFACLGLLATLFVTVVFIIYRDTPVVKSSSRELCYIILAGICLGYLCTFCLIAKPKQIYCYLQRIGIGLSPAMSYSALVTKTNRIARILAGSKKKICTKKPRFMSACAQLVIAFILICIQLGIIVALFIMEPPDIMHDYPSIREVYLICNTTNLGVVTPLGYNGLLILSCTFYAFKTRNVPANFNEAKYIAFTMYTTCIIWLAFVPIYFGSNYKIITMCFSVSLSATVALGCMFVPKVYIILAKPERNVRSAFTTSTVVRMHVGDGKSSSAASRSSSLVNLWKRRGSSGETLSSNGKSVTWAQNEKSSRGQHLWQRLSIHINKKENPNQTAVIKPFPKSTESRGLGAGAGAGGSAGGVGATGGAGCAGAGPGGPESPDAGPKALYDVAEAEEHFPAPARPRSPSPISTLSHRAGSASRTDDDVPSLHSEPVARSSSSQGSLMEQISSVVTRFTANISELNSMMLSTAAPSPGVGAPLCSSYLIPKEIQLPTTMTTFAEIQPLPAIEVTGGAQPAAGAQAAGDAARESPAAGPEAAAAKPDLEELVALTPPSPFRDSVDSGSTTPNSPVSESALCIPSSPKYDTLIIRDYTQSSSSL
Description: HEK cells transfected with the human mGluR5a receptor (H10H cell line) were plated at 15.000 cells/well in clear-bottomed poly-D-lysine-coated assay plates (BD Falcon) in glutamate-glutamine-free growth medium and incubated overnight at 37° C. and 5% CO2. The following day, the growth medium was removed and the cells were washed with assay buffer containing 1× Hank's balanced salt solution (Invitrogen, Carlsbad, Calif.), 20 mM HEPES, 2.5 mM probenecid, pH 7.4 and left with 20 μL of this reagent. Following this step, the cells were loaded with calcium indicator dye, fluo-4 AM, to a final concentration of 2 μM and incubated for 40-45 min at 37° C. The dye solution was removed and replaced with assay buffer. Cell plates were held for 10-15 min at room temperature and were then loaded into the Functional Drug Screening System 6000 (FDSS 6000, Hamamatsu, Japan).
After establishment of a fluorescence baseline for about 3 seconds, the compounds of the present invention were added to the cells, and the response in cells was measured. 2.3 minutes later an EC20 concentration of the mGluR5 receptor agonist glutamate was added to the cells, and the response of the cells was measured for about 1.7 minutes. All test compounds were dissolved and diluted to a concentration of 10 mM in 100% DMSO and then serially diluted into assay buffer for a 2× stock solution in 0.6% DMSO; stock compounds were then added to the assay for a final DMSO concentration of 0.3% after the first addition to the assay well. Calcium fluorescence measures were recorded as fold over basal fluorescence; raw data was then normalized to the maximal response to glutamate. Potentiation of the agonist response of the mGluR5 receptor in the present invention was observed as an increase in response to submaximal concentrations of glutamate in the presence of compound compared to the response to glutamate in the absence of compound.
The concentration-response curves of compounds of the present invention, obtained in the presence of EC20 of mGluR5 receptor agonist glutamate to determine positive allosteric modulation, were generated using Microsoft Excel with IDBS XLfit add-ins. The raw data file containing all time points was used as the data source in the analysis template. This was saved by the FDSS as a tab-delimitted text file. Data were normalized using a static ratio function (F/F0) for each measurement of the total 350 values per well divided by each well's initial value. Data was then reduced as to peak amplitudes (Max−Initial Min) using a time range that starts approximately 1 second after the glutamate EC20 addition and continues for approximately 40 seconds. This is sufficient time to capture the peak amplitude of the cellular calcium response. Individual amplitudes were expressed as % effect by multiplying each amplitude by 100 and then dividing the product by the mean of the amplitudes derived from the glutamate ECMax-treated wells. pEC50 values for test compounds were generated by fitting the normalized values versus the log of the test compound concentration (in mol/L) using a 4 parameter logistic equation where none of the parameters were fixed. Each of the three values collected at each concentration of test compound were weighted evenly. Individual values falling outside the 95% prediction limits of the curve fit were automatically excluded from the fit. […] These two methods are in good agreement for curves with a clear plateau at the high concentration range. […] For consistency purposes across the range of potencies observed, all Emax values reported in this application are calculated using the maximum average response at a single concentration.
Functional Assay 3 was performed under the same conditions as Functional Assay 2, except that clone H12H was used instead of clone H10H.
The clones that were used in the primary functional assay gave undiscernable differences in this assay.

human mGluR5 receptor = target: T2, human mGluR5 receptor (Homo sapiens, UniProt P41594); experiment: Functional Assay 1: intracellular Ca2+ mobilization, positive allosteric modulation of glutamate EC20 response; assay type: cell-based; conditions: maximum % effect relative to glutamate ECMax
T2 construct: expressed in transfected cells; host or cells: HEK-293
T2 sequence (P41594 21-1180 isoform P41594-2 limits assumed): as above
Description: HEK-293 cells were stable transfected with human mGluR5a cDNA in expression vector pcDNA4/TO. For Assay 1, these human mGluR5 receptor over-expressing HEK-293 cells were grown at a density of 40,000 cells/well in PDL-coated 384-well plates. The following day, cells were preloaded with the calcium-sensing dye Fluo-4 AM and various concentrations of test compound were added in the absence of exogenous glutamate to test for direct agonist activity. Shortly (2.5 min) thereafter, an EC20 equivalent of glutamate (˜0.2 μM) was added. The fluorescence signal was monitored using a Hamamatsu Functional Drug Screening System (FDSS) fluorescence plate reader following the addition of compound alone (direct agonist response) and then the further addition of an EC20 of glutamate (positive allosteric modulation response). The pEC50 was defined as the negative log of the test compound concentration which produced an increase in the glutamate EC20-mediated response that was 50% of maximum. Individual amplitudes were expressed as % effect by multiplying each amplitude by 100 and then dividing the product by the mean of the amplitudes derived from the glutamate ECMax-treated wells. Emax values reported in this application are defined as the maximum % effect obtained in a concentration-response curve.

human mGluR5a receptor [2] = target: T1, human mGluR5a receptor; experiment: Functional Assay 2: Ca2+ mobilization, HEK cells with human mGluR5a receptor (H10H cell line); assay type: cell-based; conditions: HEK293; H10H cell line; maximum average response at a single concentration, relative to glutamate ECMax
[3] = test system: amphetamine-induced hyperlocomotion; experiment: Rat hyperlocomotion assay (reversal of amphetamine-induced hyperlocomotion); assay type: in vivo; conditions: male Sprague-Dawley rats; 3.0, 10.0, 30.0, 56.6 mg/kg p.o.; amphetamine sulphate 1.0 mg/kg s.c.; FIG. 1
Description: Locomotor activity was assessed as mean distance traveled (cm) in standard 16×16 photocell testing chambers measuring 43.2 cm (Length)×43.2 cm (Width)×30.5 cm (Height) (Med Associates, St. Albans, Vt.). Animals were habituated to individual activity chambers for at least 30 min prior to drug administration. Following administration of drug or vehicle, activity was recorded for a 90 minute time period. Data was expressed as the mean (±SEM) distance traveled recorded in 5 min intervals over the test period. The data was analyzed using repeated measures analysis of variance (ANOVA) followed by post-hoc testing using Dunnett's test, when appropriate. A difference was considered significant when p≦05. […]
The animals were habituated in Smart Open Field locomotor activity test chambers (Hamilton-Kinder, San Diego, Calif.) with 16×16 photobeams to automatically record locomotor activity for 30 min and then dosed with vehicle or test compound. […] At 60 min, all rats were injected subcutaneously with 1 mg/kg amphetamine or vehicle and then monitored for an additional 60 min. Animals are monitored for a total of 120 minutes. Data are expressed as changes in ambulation defined as total number of beam breaks per 5 min periods.
The data for the dose-response studies were analyzed by a between-group analysis of variance. […]

C[C@@H](N1CCc2nc(COc3cccc(F)c3)sc2C1=O)C(C)(C)C [Compound 7, 2-[(3-fluorophenoxy)methyl]-6,7-dihydro-5-[(1R)-1,2,2-trimethylpropyl]-thiazolo[5,4-c]pyridin-4(5H)-one]
EC50 (human mGluR5a receptor [1]): 1410 nM
Emax (human mGluR5a receptor [1]): 57%
melting point: 87.2 to 87.8 °C

CN1CCc2nc(COc3ccccc3)sc2C1=O [Compound 8, 6,7-dihydro-5-methyl-2-(phenoxymethyl)-thiazolo[5,4-c]pyridin-4(5H)-one]
Emax (human mGluR5 receptor): 88%
Emax (human mGluR5a receptor [2]): 77%
reversal of amphetamine-induced hyperlocomotion [3]: dose-dependent reversal effects

O=C1c2sc(COc3ccccc3)nc2CCN1c1ccc(F)cc1 [Compound 9, 5-(4-fluorophenyl)-6,7-dihydro-2-(phenoxymethyl)-thiazolo[5,4-c]pyridin-4(5H)-one]
EC50 (human mGluR5a receptor [1]): 112 nM
Emax (human mGluR5a receptor [1]): 79%

O=C1c2sc(COc3cccc(F)c3)nc2CCN1c1ccc(F)cc1F [Compound 28, 5-(2,4-difluorophenyl)-2-[(3-fluorophenoxy)methyl]-6,7-dihydro-thiazolo[5,4-c]pyridin-4(5H)-one]
EC50 (human mGluR5a receptor [1]): 85.1 nM
Emax (human mGluR5a receptor [1]): 63%

O=C1c2sc(OCc3cccc(F)c3)nc2CCN1c1cccc(C(F)(F)F)c1 [Compound 30, 2-[(3-fluorophenyl)methoxy]-6,7-dihydro-5-[3-(trifluoromethyl)phenyl]-thiazolo[5,4-c]pyridin-4(5H)-one]
EC50 (human mGluR5a receptor [1]): 933 nM
Emax (human mGluR5a receptor [1]): 58%
melting point: 108.2 to 108.9 °C

C[C@@H](N1CCc2nc(COc3ccccc3)sc2C1=O)C(C)(C)C [Compound 35, 6,7-dihydro-2-(phenoxymethyl)-5-[(1R)-1,2,2-trimethylpropyl]-thiazolo[5,4-c]pyridin-4(5H)-one]
EC50 (human mGluR5a receptor [1]): 794 nM
Emax (human mGluR5a receptor [1]): 60%

C[C@@H](N1CCc2nc(OCc3cccc(F)c3)sc2C1=O)C(C)(C)C [Compound 77, 2-[(3-fluorophenyl)methoxy]-6,7-dihydro-5-[(1R)-1,2,2-trimethylpropyl]-thiazolo[5,4-c]pyridin-4(5H)-one]
EC50 (human mGluR5a receptor [1]): > 30200 nM
Emax (human mGluR5a receptor [1]): 21%
